Measured values taken from ChEMBL document CHEMBL1133757, “Reporter affinity labels: an o-phthalaldehyde derivative of beta-naltrexamine as a fluorogenic ligand for opioid receptors” (J Med Chem, 2000).

What was measured:
Mu-type opioid receptor = Mu-type opioid receptor (Homo sapiens, UniProt P35372); assay: Inhibition of [3H]- diprenorphine binding to Opioid receptor mu 1 (83 fmol/mg protein) stably expressed in membranes from CHO cells; assay type: cell membranes
[1] = target: Kappa-type opioid receptor (Homo sapiens, UniProt P41145); assay: Inhibition of [3H]diprenorphine binding to Opioid receptor kappa 1
[2] = target: Delta-type opioid receptor (Homo sapiens, UniProt P41143); assay: Inhibition of [3H]- diprenorphine binding to Opioid receptor delta 1
Delta-type opioid receptor, sequence (P41143 whole entry): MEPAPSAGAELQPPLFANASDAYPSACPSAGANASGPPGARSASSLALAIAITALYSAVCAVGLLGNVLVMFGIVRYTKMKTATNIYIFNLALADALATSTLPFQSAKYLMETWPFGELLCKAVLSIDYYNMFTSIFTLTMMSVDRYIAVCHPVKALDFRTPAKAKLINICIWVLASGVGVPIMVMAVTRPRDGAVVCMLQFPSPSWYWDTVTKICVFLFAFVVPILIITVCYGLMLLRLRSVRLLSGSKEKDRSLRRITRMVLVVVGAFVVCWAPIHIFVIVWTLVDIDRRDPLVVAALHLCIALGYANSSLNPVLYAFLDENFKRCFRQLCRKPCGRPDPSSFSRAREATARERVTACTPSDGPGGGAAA

Mu-type opioid receptor, sequence (P35372 whole entry): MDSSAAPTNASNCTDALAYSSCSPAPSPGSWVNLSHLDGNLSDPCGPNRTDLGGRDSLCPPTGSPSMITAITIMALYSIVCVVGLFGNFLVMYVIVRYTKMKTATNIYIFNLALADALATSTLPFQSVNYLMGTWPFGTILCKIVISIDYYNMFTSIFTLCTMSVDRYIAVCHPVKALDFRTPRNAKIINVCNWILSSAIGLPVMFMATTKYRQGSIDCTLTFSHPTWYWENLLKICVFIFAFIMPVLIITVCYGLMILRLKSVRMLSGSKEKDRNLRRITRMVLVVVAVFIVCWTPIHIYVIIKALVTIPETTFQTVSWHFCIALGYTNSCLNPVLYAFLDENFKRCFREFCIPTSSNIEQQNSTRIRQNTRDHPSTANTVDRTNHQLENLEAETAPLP
Kappa-type opioid receptor, sequence (P41145 whole entry): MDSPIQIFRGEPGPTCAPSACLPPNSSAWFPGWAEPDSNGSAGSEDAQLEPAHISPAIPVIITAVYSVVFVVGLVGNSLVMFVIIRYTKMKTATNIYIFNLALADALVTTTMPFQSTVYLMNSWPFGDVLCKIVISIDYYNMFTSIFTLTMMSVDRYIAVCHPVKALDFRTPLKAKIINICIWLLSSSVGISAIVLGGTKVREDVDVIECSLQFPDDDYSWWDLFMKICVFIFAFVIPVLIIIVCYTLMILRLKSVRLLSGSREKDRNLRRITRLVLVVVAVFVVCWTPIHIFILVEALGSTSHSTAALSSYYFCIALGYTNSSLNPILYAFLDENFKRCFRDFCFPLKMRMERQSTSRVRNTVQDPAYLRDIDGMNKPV

Molecule `O=Cc1ccc(C(=O)NCC(=O)N[C@@H]2CC[C@@]3(O)[C@H]4Cc5ccc(O)c6c5C3(CCN4CC3CC3)C2O6)cc1C=O` (stereo partly drawn) has a Ki (Mu-type opioid receptor) of 0.45 nM, a Ki [1] of 0.7 nM and a Ki [2] of 2.57 nM.
